# Data published in patent publication US12404242B2, “Compositions and methods for making and using small molecules in the treatment of cancer” (Reglagene, Inc., priority 2021, dated 2025).
# How the values were obtained:
# [1] = Kinetic solubility in aqueous PBS buffer (HPLC-MS); format: physicochemical; conditions: kinetic from dmso stock, DMSO stock mixed with aqueous PBS buffer, filtered, read-out: Kinetic Solubility
# Protocol: In another exemplary method, central nervous system multiparameter optimization (CNS MPO) score and kinetic solubility of selected compounds was determined. CNS MPO score for compounds and their isomers disclosed herein were calculated using an algorithm that uses a weighted scoring function assessing 6 key physicochemical properties (clogP, clogD, MW, TPSA, HBD, and pKa) for blood-brain-barrier (BBB penetration). CNS MPO score ranged from 0 and 6.0 with scores≥4.0 used as a cut-off to select compounds that can have a high probability of accumulating in the CNS. Kinetic solubility of a compound is the maximum solubility of the fastest precipitating species of the compound. Kinetic solubility was determined by preparing a concentrated stock solution for compounds and their isomers disclosed herein in an organic solvent (DMSO), after which the solution was mixed with an aqueous PBS buffer and then filtered. Filtrate was tested to quantify the kinetic solubilty using HPLC-MS calibration curve. The CNS MPO Score and kinetic solubility of the compounds tested are provided in Table 7 where “ND” means not determined.
# [2] = tested on: LNCaP cells; assay: Cell viability (AlamarBlue), LNCaP prostate cancer cells; format: cell-based, human; design: key to EC50 (μM) in LNCaP cells: Inactive: less than 50% inhibition at the highest concentration tested at 50 μM; conditions: 72 hours of treatment; for EC50: Homo sapiens, LNCaP, 72 h
# Protocol: (§1) In another exemplary method, half maximal effective concentration (EC50) was determined for some compounds and their isomers as disclosed herein in a variety of human cancer cell lines. In brief, cells from two prostate cancer cell lines (LNCaP, 22RV1), one glioblastoma cell line (U87), one breast cancer cell line (MCF7), a glioma cell line (LN18), a normal prostate cell line (RWPE1), and a glioblastoma cell line (T98G) were plated in a multi-well plate. After 24 hours, one of the compounds herein was added to the well at increasing concentrations. After 72 hours of treatment, cell viability was assessed using AlamrBlue® (Invitrogen) and fluorescence was read using the CLARIOstar Plus Multilabel Plate Reader (BMG Labtech). Samples were normalized to no treatment controls. EC50 values were determined using GraphPad Prism.
# [3] = tested on: 22RV1 cells; assay: Cell viability (AlamarBlue), 22RV1 prostate cancer cells; format: cell-based, human; design: key to EC50 (μM) in 22RV1 cells: Inactive: less than 50% inhibition at the highest concentration tested at 50 μM; conditions: 72 hours of treatment; for EC50: Homo sapiens, 22Rv1, 72 h
# Protocol: as §1
# [4] = tested on: U87 cells; assay: Cell viability (AlamarBlue), U87 glioblastoma cells; format: cell-based, human; design: key to EC50 (μM) in U87 cells: Inactive: less than 50% inhibition at the highest concentration tested at 50 μM; conditions: 72 hours of treatment; for EC50: Homo sapiens, U-87 MG, 72 h
# Protocol: as §1
solubility kinetic [1] [µM],EC50 (μM) in LNCaP cells [2],EC50 (μM) in 22RV1 cells [3],EC50 (μM) in U87 cells [4],EC50 [3] [µM],EC50 [4] [µM],EC50 [2] [µM],SMILES
0.53,–,–,–,–,–,–,"COC1CCC(C(=O)NC(=O)Nc2ccc(Oc3ccc(C#N)cn3)c(C)c2)CC1 (centres unmarked) [Compound 6, 3-{4-[(5-cyanopyridin-2-yl)oxy]-3-methylphenyl}-1-(4-methoxycyclohexanecarbonyl)urea]"
14.7,–,–,–,–,–,–,"COC1CC(C(=O)NC(=O)Nc2ccc(Oc3ccc(F)cn3)c(C)c2)C1 (centres unmarked) [Compound 15, N-((4-((5-fluoropyridin-2-yl)oxy)-3-methylphenyl)carbamoyl)-3-methoxycyclobutane-1-carboxamide]"
11.6,–,–,–,–,–,–,"COC1CC(C(=O)NC(=O)Nc2ccc(Oc3ccc(C#N)cn3)c(C)c2)C1 (centres unmarked) [Compound 16, N-((4-((5-cyanopyridin-2-yl)oxy)-3-methylphenyl)carbamoyl)-3-methoxycyclobutane-1-carboxamide]"
7.1,–,–,–,–,–,–,"COC1CC(C(=O)NC(=O)Nc2ccc(Oc3ncc(Cl)cn3)c(C)c2)C1 (centres unmarked) [Compound 20, N-((4-((5-chloropyrimidin-2-yl)oxy)-3-methylphenyl)carbamoyl)-3-methoxycyclobutane-1-carboxamide]"
–,Inactive,Inactive,Inactive,–,–,–,"Cc1cc(NC(=O)NC(=O)C2CC(OCC3CC3)C2)ccc1Oc1ccc(Cl)cn1 (centres unmarked) [Compound 40, N-((4-((5-chloropyridin-2-yl)oxy)-3-methylphenyl)carbamoyl)-3-(cyclopropylmethoxy)cyclobutane-1-carboxamide]"
–,Inactive,–,–,46,49,–,"Cc1cc(NC(=O)NC(=O)C2CC(OCC3CC3)C2)ccc1Oc1ncc(Cl)cn1 (centres unmarked) [Compound 41, N-((4-((5-chloropyrimidin-2-yl)oxy)-3-methylphenyl)carbamoyl)-3-(cyclopropylmethoxy)cyclobutane-1-carboxamide]"
–,–,–,–,37,41.5,19.8,"COC1CCC(C(=O)NC(=O)Nc2ccc(Oc3cncnc3)c(C)c2)CC1 (centres unmarked) [Compound 42, 4-methoxy-N-((3-methyl-4-(pyrimidin-5-yloxy)phenyl)carbamoyl)cyclohexane-1-carboxamide]"
–,–,–,–,39,34,21.8,"COC1CC(C(=O)NC(=O)Nc2ccc(Oc3cncnc3)c(C)c2)C1 (centres unmarked) [Compound 43, 3-methoxy-N-((3-methyl-4-(pyrimidin-5-yloxy)phenyl)carbamoyl)cyclobutane-1-carboxamide]"
58.4,–,–,–,–,–,–,"COC1CC(C(=O)NC(=O)Nc2ccc(Oc3nccs3)c(C)c2)C1 (centres unmarked) [Compound 45, 3-methoxy-N-((3-methyl-4-(thiazol-2-yloxy)phenyl)carbamoyl)cyclobutane-1-carboxamide]"
0.39,–,–,Inactive,8,–,2.9,"COC1CCC(C(=O)NC(=O)Nc2ccc(Oc3cnc(N4CCOCC4)nc3)c(C)c2)CC1 (centres unmarked) [Compound 46, 4-methoxy-N-((3-methyl-4-((2-morpholinopyrimidin-5-yl)oxy)phenyl)carbamoyl)cyclohexane-1-carboxamide]"
84.2,–,–,–,3.2,6.4,12.4,"COCCOC1CC(C(=O)NC(=O)Nc2ccc(Oc3ncc(Cl)cn3)c(C)c2)C1 (centres unmarked) [Compound 48, N-((4-((5-chloropyrimidin-2-yl)oxy)-3-methylphenyl)carbamoyl)-3-(2-methoxyethoxy)cyclobutane-1-carboxamide]"
37.5,–,–,–,1.3,3.7,11.8,"COCCOC1CC(C(=O)NC(=O)Nc2ccc(Oc3ccc(Cl)cn3)c(C)c2)C1 (centres unmarked) [Compound 49, N-((4-((5-chloropyridin-2-yl)oxy)-3-methylphenyl)carbamoyl)-3-(2-methoxyethoxy)cyclobutane-1-carboxamide]"
–,Inactive,Inactive,Inactive,–,–,–,"COCCOC1CCC(C(=O)NC(=O)Nc2ccc(Oc3ncc(Cl)cn3)c(C)c2)CC1 (centres unmarked) [Compound 50, N-((4-((5-chloropyrimidin-2-yl)oxy)-3-methylphenyl)carbamoyl)-4-(2-methoxyethoxy)cyclohexanecarboxamide]"
–,–,–,–,20,29,11.1,"COC1CCC(C(=O)NC(=O)Nc2ccc(Oc3cnc(N4CC5(COC5)C4)nc3)c(C)c2)CC1 (centres unmarked) [Compound 51, N-((4-((2-(2-oxa-6-azaspiro[3.3]heptan-6-yl)pyrimidin-5-yl)oxy)-3-methylphenyl)carbamoyl)-4-methoxycyclohexanecarboxamide]"
–,–,–,Inactive,36,–,25.3,"COC1CC(C(=O)NC(=O)Nc2ccc(Oc3cnc(N4CC5(COC5)C4)nc3)c(C)c2)C1 (centres unmarked) [Compound 52, -((4-((2-(2-oxa-6-azaspiro[3.3]heptan-6-yl)pyrimidin-5-yl)oxy)-3-methylphenyl)carbamoyl)-3-methoxycyclobutanecarboxamide]"
–,Inactive,Inactive,Inactive,–,–,–,"Cc1cc(NC(=O)NC(=O)C2CCC(O)CC2)ccc1Oc1ncc(Cl)cn1 (centres unmarked) [Compound 53, N-((4-((5-chloropyrimidin-2-yl)oxy)-3-methylphenyl)carbamoyl)-4-hydroxycyclohexane-1-carboxamide]"
–,Inactive,Inactive,Inactive,–,–,–,"COCCOC1CCC(C(=O)NC(=O)Nc2ccc(Oc3ncc(Cl)cn3)c(F)c2)CC1 (centres unmarked) [Compound 54, N-((4-((5-chloropyrimidin-2-yl)oxy)-3-fluorophenyl)carbamoyl)-4-(2-methoxyethoxy)cyclohexane-1-carboxamide]"
–,Inactive,–,Inactive,30.6,–,–,"COC1CC(C(=O)NC(=O)Nc2ccc(Oc3nncs3)c(C)c2)C1 (centres unmarked) [Compound 55, N-((4-((1,3,4-thiadiazol-2-yl)oxy)-3-methylphenyl)carbamoyl)-3-methoxycyclobutanecarboxamide]"
75,–,–,–,6.3,13.5,3.1,"COC1CC(C(=O)NC(=O)Nc2ccc(Oc3ncns3)c(C)c2)C1 (centres unmarked) [Compound 57, N-((4-((1,2,4-thiadiazol-5-yl)oxy)-3-methylphenyl)carbamoyl)-3-methoxycyclobutane-1-carboxamide]"
–,–,–,–,1.6,0.35,0.93,"COC1CC(C(=O)NC(=O)Nc2ccc(Oc3ncc(C(F)(F)F)s3)c(C)c2)C1 (centres unmarked) [Compound 61, 3-methoxy-N-((3-methyl-4-((5-(trifluoromethyl)thiazol-2-yl)oxy)phenyl)carbamoyl)cyclobutane-1-carboxamide]"
–,–,–,–,1,5.4,21,"COC1CC(C(=O)NC(=O)Nc2ccc(Oc3ncc(C#N)s3)c(C)c2)C1 (centres unmarked) [Compound 62, N-((4-((5-cyanothiazol-2-yl)oxy)-3-methylphenyl)carbamoyl)-3-methoxycyclobutane-1-carboxamide]"
–,Inactive,Inactive,Inactive,–,–,–,"COC1(C(=O)NC(=O)Nc2ccc(Oc3ncc(Cl)cn3)c(C)c2)CC1 [Compound 66, N-((4-((5-chloropyrimidin-2-yl)oxy)-3-methylphenyl)carbamoyl)-1-methoxycyclopropane-1-carboxamide]"
–,Inactive,Inactive,Inactive,–,–,–,"COC1(C(=O)NC(=O)Nc2ccc(Oc3nccs3)c(C)c2)CC1 [Compound 68, 1-methoxy-N-((3-methyl-4-(thiazol-2-yloxy)phenyl)carbamoyl)cyclopropane-1-carboxamide]"
–,Inactive,Inactive,Inactive,–,–,–,"COC1(C(=O)NC(=O)Nc2ccc(Oc3ncccn3)c(C)c2)CC1 [Compound 69, 1-methoxy-N-((3-methyl-4-(pyrimidin-2-yloxy)phenyl)carbamoyl)cyclopropane-1-carboxamide]"
2.21,–,–,–,–,0.06,–,"COC12CC(C(=O)NC(=O)Nc3ccc(Oc4ncc(Cl)cn4)c(C)c3)(C1)C2 [Compound 85, N-((4-((5-chloropyrimidin-2-yl)oxy)-3-methylphenyl)carbamoyl)-3-methoxybicyclo[1.1.1]pentane-1-carboxamide]"
